{
  "source": "patent US20220281930A1",
  "about": "“COMPOSITIONS AND METHODS FOR THE TREATMENT OF PATHOLOGICAL PAIN AND ITCH” (DUKE UNIVERSITY, priority 2019, published 2022)",
  "tested_on": "KCC2 promoter",
  "assay": "KCC2-LUC luciferase primary screen in primary cortical neurons",
  "assay_type": "cell-based, mouse",
  "settings": "rank score, 100 nM, 48 h",
  "procedure": "Cytosine arabinoside ([…]) was added to cultures on the second day after seeding [2 d in vitro (DIV)] to inhibit the proliferation of non-neuronal cells. Cell suspension was plated at a density of 1×10^6 cells/ml onto 24-well tissue-culture dishes coated with poly-d-lysine.\nLUC activity was then determined for each compound. Culture supernatant was removed and cells were lysed with 150 μl lysis buffer (Targeting Systems CA, USA cat. CLR1). LUC activity was measured with a RedLuciferase Assay kit (Targeting Systems cat. FLAR) according to the manufacturer's instructions. A Veritas microplate luminometer was used to measure luminescence; for each treatment triplicates of 40 μl cell lysates (from each 24-well tissue-culture dish) were used and 25 μl substrate was injected per well. […] Relative Light units (RLU) for each treatment was derived from Light Units (compound treatment)/vehicle treatment (0.5% DMSO).\nThe primary screen encompassed three levels of LUC measurements. […] Each compound was ranked based on composite scores from primary and secondary screening.",
  "data": [
    {"compound": "CC1(C)C(O)OC(O)C1(C)C", "note": "(stereo not shown) [3,3,4,4-tetramethyloxolane-2,5-diol, 3,3,4,4-tetramethyl-oxolane-2,5-diol]", "values": [
      {"measurement": "Luciferase Score (triplicates)", "setting": "Mechanistic Compounds", "value": 6}
    ]},
    {"compound": "CC(=O)/C(=C\\c1cccc([N+](=O)[O-])c1)C(=O)Nc1ccccc1C", "note": "[(2E)-N-(2-methylphenyl)-2-[(3-nitrophenyl)methylidene]-3-oxobutanamide]", "values": [
      {"measurement": "Luciferase Score (triplicates)", "setting": "Mechanistic Compounds", "value": 5}
    ]},
    {"compound": "NC(=O)c1cn(C2OC(CO)C(O)C2O)c2ncnc(N)c12", "note": "(stereo not shown) [Sauzivamycin]", "values": [
      {"measurement": "Luciferase Score (triplicates)", "setting": "Mechanistic Compounds", "value": 6}
    ]},
    {"compound": "COc1cc2c(c(OC)c1OC)-c1ccc(OC)c(=O)cc1[C@@H](NC(C)=O)CC2", "note": "[colchicine]", "values": [
      {"measurement": "Luciferase Score (triplicates)", "setting": "Natural Compounds", "value": 10}
    ]},
    {"compound": "CC(=O)N1CCN(c2ccc(OCC3COC(Cn4ccnc4)(c4ccc(Cl)cc4Cl)O3)cc2)CC1", "note": "(stereo not shown) [ketoconazole]", "values": [
      {"measurement": "Luciferase Score (triplicates)", "setting": "Natural Compounds", "value": 9}
    ]},
    {"compound": "COc1cc([C@@H]2c3cc4c(cc3[C@H](O[C@@H]3O[C@@H]5COC(c6ccccc6)O[C@H]5[C@H](O)[C@H]3O)[C@H]3COC(=O)[C@H]23)OCO4)cc(OC)c1OC", "note": "(stereo partly shown) [proresidor]", "values": [
      {"measurement": "Luciferase Score (triplicates)", "setting": "Natural Compounds", "value": 9}
    ]},
    {"compound": "COc1ccc(C(=O)O[C@H]2CC[C@@]3(C)[C@@H]4CC[C@H]5[C@]6(O)C[C@H](O)[C@@]7(O)[C@@H](CN8C[C@@H](C)CC[C@H]8[C@@]7(C)O)[C@]6(O)C[C@@]53O[C@]24O)cc1OC", "note": "[veratridine]", "values": [
      {"measurement": "Luciferase Score (triplicates)", "setting": "Natural Compounds", "value": 7}
    ]}
  ]
}
